Measured values: PubChem BioAssay AID2060485 (Molecular Pharmacology Branch, DTP, NCI, 2025)

Tested on: A375 multi-cell spheroids with HUVEC/MSC, viability
Experiment: Anticancer human tumor A375 cell line growth inhibition [GQUAD];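 further: spheroids exposed to compounds for seven days before readout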
Conditions: for IC50: curve of first compound; for viability, T/C: stronger effect = lower value
Text: DNA G-quadruplex Stabilizer Agents in Combinations in Complex Spheroids
A high-throughput screen of multi-cell type tumor spheroids was designed to identify active combinations of DNA G-quadruplex stabilizer agents and targeted small molecules. Complex spheroids include a stromal component modeled by human endothelial cells (HUVEC) and fibroblasts modeled by human mesenchymal stem cells (MSCs). The concentration ranges selected for each drug and investigational agent were based upon clinically achievable concentrations if the clinical Cmax of the agent was known.
Compounds. The drugs and investigational agents: pidnarulex (CX-5461; NSC782164), APTO-253 (NSC789042), BRACO-19 (NSC847499), peposertib (NSC802822), ceralasertib (NSC780249), elimusertib (NSC800525), camonsertib (NSC841442), AZD-1390 (NSC803789), olaparib (NSC753686), talazoparib (NSC767125), ART-558 (NSC835418), sotorasib (NSC818433), MRTX-1133 (NSC836407), SN-38 (NSC673596), topotecan (NSC609699), etoposide (NSC141540), doxorubicin (NSC123127), gemcitabine (NSC613327), 5-fluorouracil (NSC19893), paclitaxel (NSC125973), vemurafenib (NSC761431), panobinostat (NSC761190), R-306465 (JNJ-16241199; NSC773264), adavosertib (NSC754352), TP-3654 (NSC805149), carboplatin (NSC241240), KSQ-4279 (NSC840948), and staurosporine (NSC755774) were obtained from the National Cancer Institute (NCI) Developmental Therapeutics Program Chemical Repository (34). The FDA-approved anticancer drug set is available from the NCI Developmental Therapeutics Program. […] The stock solutions were prepared in dimethyl sulfoxide (DMSO, Sigma-Aldrich, St. Louis, MO, cat. D2650) at 800-fold the tested concentration and stored at -70 degrees C prior to their use. All drugs and investigational agents were tested over a range starting from a high concentration at or near the clinical Cmax and decreasing in half-log increments. If the clinical Cmax for an agent had not been determined, the highest concentration tested was 10 microM.
2.3 Cell Culture. All cells were maintained in an incubator at 37 degrees C and 5% CO2 with 95% humidity. The PDC lines were cultured according to standard operating procedures established by the NCI PDMR. All PDCs were thawed and cultured in Matrigel-coated flasks prepared with a working solution of 1X Ham's F-12 nutrient mix, without supplementation (Invitrogen, cat. 11765054), 100 U/mL penicillin-streptomycin (Invitrogen, cat. 15140122), and 2.5% Matrigel (Corning Inc., cat. 354248) for the first three passages. The 857933-349-R-J2-PDC line was cultured in 6C/Colon 1B media, which includes advanced DMEM/F-12 (Thermo Fisher Scientific, cat. 12634028), 10 mM HEPES (Thermo Fisher Scientific, cat. 15630080), 1X GlutaMAX supplement (Thermo Fisher Scientific, cat. 35050061), 0.1 mg/mL primocin (InvivoGen, cat. ant-pm-2), 10% defined fetal bovine serum, heat inactivated (HyClone Laboratories Inc., cat. SH30070.03HI), 50% L-WRN conditioned media (ATCC, cat. CRL-3276), 1.25 mM N-Acetyl-L-cysteine (Sigma-Aldrich, cat. A9165), 10 mM nicotinamide (Sigma-Aldrich, cat. N0636), 1X B-27 supplement (Thermo Fisher Scientific, cat. 17504044), 1X N-2 supplement (Thermo Fisher Scientific, cat. 17502048), 10 microM Y-27632 dihydrochloride (Tocris Bioscience, cat. 1254), and 50 ng/mL human EGF recombinant protein (Thermo Fisher Scientific, cat. PHG0311). The 485176-168-R4-J1-PDC line was cultured in Panc media, which includes all 6C/Colon 1B media components plus 100 ng/mL human FGF-10 (Thermo Fisher Scientific, cat. 100-26), 500 nM SB-431542 (Selleckchem, cat. S1067), and gastrin (Tocris, cat. 3006).
[…]

[1] = second compound 0.0316 µM, first compound 0.0316 µM
[2] = second compound 0.0316 µM, first compound 0.1 µM
[3] = second compound 0.0316 µM, first compound 0.316 µM
[4] = second compound 0.0316 µM, first compound 1 µM
[5] = second compound 0.0316 µM, first compound 3.16 µM
[6] = second compound 0.0316 µM, first compound 10 µM
[7] = second compound 0.1 µM, first compound 0.0316 µM
[8] = second compound 0.1 µM, first compound 0.1 µM
[9] = second compound 0.1 µM, first compound 0.316 µM
[10] = second compound 0.1 µM, first compound 1 µM
[11] = second compound 0.1 µM, first compound 3.16 µM
[12] = second compound 0.1 µM, first compound 10 µM
[13] = second compound 0.316 µM, first compound 0.0316 µM
[14] = second compound 0.316 µM, first compound 0.1 µM
[15] = second compound 0.316 µM, first compound 0.316 µM
[16] = second compound 0.316 µM, first compound 1 µM
[17] = second compound 0.316 µM, first compound 3.16 µM
[18] = second compound 0.316 µM, first compound 10 µM
[19] = second compound 1 µM, first compound 0.0316 µM
[20] = second compound 1 µM, first compound 0.1 µM
[21] = second compound 1 µM, first compound 0.316 µM
[22] = second compound 1 µM, first compound 1 µM
[23] = second compound 1 µM, first compound 3.16 µM
[24] = second compound 1 µM, first compound 10 µM
[25] = second compound 3.16 µM, first compound 0.0316 µM
[26] = second compound 3.16 µM, first compound 0.1 µM
[27] = second compound 3.16 µM, first compound 0.316 µM
[28] = second compound 3.16 µM, first compound 1 µM
[29] = second compound 3.16 µM, first compound 3.16 µM
[30] = second compound 3.16 µM, first compound 10 µM
[31] = second compound 10 µM, first compound 0.0316 µM
[32] = second compound 10 µM, first compound 0.1 µM
[33] = second compound 10 µM, first compound 0.316 µM
[34] = second compound 10 µM, first compound 1 µM
[35] = second compound 10 µM, first compound 3.16 µM
[36] = second compound 10 µM, first compound 10 µM

CC1COCCN1c1cc(-c2ccnn2C)c2ccnc(-c3ccn[nH]3)c2n1 (stereo unspecified) + Cc1[nH]c2ccc(F)cc2c1-c1nc2c3cccnc3c3ncccc3c2[nH]1
IC50 (second compound 0.0316 µM): 628 nM
IC50 (second compound 0.1 µM): 613 nM
IC50 (second compound 0.316 µM): 454 nM
IC50 (second compound 1 µM): 384 nM
IC50 (second compound 3.16 µM): 35.1 nM
IC50 (second compound 10 µM): 52.7 nM
viability, T/C [1]: 111%
viability, T/C [2]: 108%
viability, T/C [3]: 75.3%
viability, T/C [4]: 33.3%
viability, T/C [5]: 13.1%
viability, T/C [6]: 12.3%
viability, T/C [7]: 116%
viability, T/C [8]: 113%
viability, T/C [9]: 66.4%
viability, T/C [10]: 39%
viability, T/C [11]: 12.2%
viability, T/C [12]: 10.8%
viability, T/C [13]: 114%
viability, T/C [14]: 128%
viability, T/C [15]: 62.6%
viability, T/C [16]: 34%
viability, T/C [17]: 13.5%
viability, T/C [18]: 12.7%
viability, T/C [19]: 97.7%
viability, T/C [20]: 87.3%
viability, T/C [21]: 52.1%
viability, T/C [22]: 30%
viability, T/C [23]: 15.6%
viability, T/C [24]: 14%
viability, T/C [25]: 52.7%
viability, T/C [26]: 29.4%
viability, T/C [27]: 23%
viability, T/C [28]: 18.2%
viability, T/C [29]: 11.8%
viability, T/C [30]: 9.5%
viability, T/C [31]: 63.3%
viability, T/C [32]: 30.2%
viability, T/C [33]: 27.9%
viability, T/C [34]: 21.4%
viability, T/C [35]: 18%
viability, T/C [36]: 11.7%

CC1COCCN1c1cc(-c2ccnn2C)c2ccnc(-c3ccn[nH]3)c2n1 (stereo unspecified) + CN(C)c1ccc(Nc2c3ccc(NC(=O)CCN4CCCC4)cc3nc3cc(NC(=O)CCN4CCCC4)ccc23)cc1
IC50 (second compound 0.0316 µM): 308 nM
IC50 (second compound 0.1 µM): 303 nM
IC50 (second compound 0.316 µM): 344 nM
IC50 (second compound 1 µM): 339 nM
IC50 (second compound 3.16 µM): 319 nM
IC50 (second compound 10 µM): 283 nM
viability, T/C [1]: 105%
viability, T/C [2]: 78.3%
viability, T/C [3]: 50.8%
viability, T/C [4]: 25.8%
viability, T/C [5]: 10%
viability, T/C [6]: 9.41%
viability, T/C [7]: 114%
viability, T/C [8]: 82%
viability, T/C [9]: 48.8%
viability, T/C [10]: 26.6%
viability, T/C [11]: 10.1%
viability, T/C [12]: 9.57%
viability, T/C [13]: 111%
viability, T/C [14]: 82.6%
viability, T/C [15]: 53.6%
viability, T/C [16]: 26.7%
viability, T/C [17]: 11.1%
viability, T/C [18]: 9.6%
viability, T/C [19]: 108%
viability, T/C [20]: 82.9%
viability, T/C [21]: 51.4%
viability, T/C [22]: 27.5%
viability, T/C [23]: 11.2%
viability, T/C [24]: 8.68%
viability, T/C [25]: 110%
viability, T/C [26]: 83.9%
viability, T/C [27]: 48.9%
viability, T/C [28]: 28.2%
viability, T/C [29]: 10.8%
viability, T/C [30]: 10.2%
viability, T/C [31]: 97.7%
viability, T/C [32]: 74.2%
viability, T/C [33]: 47.3%
viability, T/C [34]: 27.6%
viability, T/C [35]: 11.1%
viability, T/C [36]: 9.62%

C=CC(=O)N1CCN(c2nc(=O)n(-c3c(C)ccnc3C(C)C)c3nc(-c4c(O)cccc4F)c(F)cc23)C(C)C1 (stereo unspecified) + Cc1cnc(CNC(=O)c2c(=O)c3ccc(N4CCCN(C)CC4)nc3n3c2sc2ccccc23)cn1
IC50 (second compound 0.0316 µM): > 10000 nM
IC50 (second compound 0.1 µM): > 10000 nM
IC50 (second compound 0.316 µM): > 10000 nM
IC50 (second compound 1 µM): < 31.6 nM
IC50 (second compound 3.16 µM): < 31.6 nM
IC50 (second compound 10 µM): < 31.6 nM
viability, T/C [1]: 94.5%
viability, T/C [2]: 103%
viability, T/C [3]: 109%
viability, T/C [4]: 106%
viability, T/C [5]: 145%
viability, T/C [6]: 129%
viability, T/C [7]: 86.7%
viability, T/C [8]: 77.3%
viability, T/C [9]: 92.9%
viability, T/C [10]: 82.3%
viability, T/C [11]: 95%
viability, T/C [12]: 83.2%
viability, T/C [13]: 51.6%
viability, T/C [14]: 56.6%
viability, T/C [15]: 55.4%
viability, T/C [16]: 57%
viability, T/C [17]: 59.2%
viability, T/C [18]: 58%
viability, T/C [19]: 42.4%
viability, T/C [20]: 47.9%
viability, T/C [21]: 48.8%
viability, T/C [22]: 48.6%
viability, T/C [23]: 45.1%
viability, T/C [24]: 40.2%
viability, T/C [25]: 34.9%
viability, T/C [26]: 32.5%
viability, T/C [27]: 32.7%
viability, T/C [28]: 36.4%
viability, T/C [29]: 37.6%
viability, T/C [30]: 34.1%
viability, T/C [31]: 28.8%
viability, T/C [32]: 32.9%
viability, T/C [33]: 33%
viability, T/C [34]: 33.5%
viability, T/C [35]: 31.6%
viability, T/C [36]: 28.5%
